Data published in US10189794B2, “Heteroaryl compounds and uses thereof” (Celgene CAR LLC, priority 2013, dated 2019).

Tests used:
Huh7 cells = test: Cell proliferation, Huh7 (CellTiter Glo); type: cell-based; details: Homo sapiens, Huh-7; Huh7; 120 hr; read-out: Cell Proliferation GI50 (nM) HUH
Description: The growth inhibition (GI50) values were determined by Graph Pad Prism.

MDA-MB-453 cells = test: Cell proliferation, MDA-MB-453 (CellTiter Glo); type: cell-based; details: Homo sapiens; MDA-MB-453; 96 hr; read-out: Cell Proliferation GI50 (nM) MDA
Description: For both MDA-MB-453 and Huh7 cells the starting density was 5000 cells per well. The cells were allowed to settle down for 4 hr and were then treated with 5, 1.25, 0.31, 0.078, 0.020 or 0.005 μM of test compound for: 96 hr for MDA-MB-453 and 120 hr for Huh7 cells. Cell viability was determined by CellTiter Glo (Promega, Madison, Wis.) and the results were converted to cell numbers using a standard curve. The growth inhibition (GI50) values were determined by Graph Pad Prism.
The results of these experiments show the ability of compounds to inhibit cell growth in FGFR dependant cell lines and are depicted in Table 8, in the columns titled “Cell Proliferation GI50 (nM)”. MDA-MB-453 cell results fall under the heading “MDA” and Huh7 cell results fall under the heading “Huh.”

Row | GI50 (Huh7 cells) [nM] | GI50 (MDA-MB-453 cells) [nM] | SMILES
1 | 501 to 999 | – | C=CC(=O)N[C@H]1COCC[C@H]1Nc1ncc2c(n1)N(C)C(=O)N(c1c(Cl)c(OC)cc(OC)c1Cl)C2 [I-140]
2 | 101 to 500 | – | C=CC(=O)N[C@H]1CCCC[C@H]1Nc1ncc2c(n1)N(C)C(=O)N(c1c(F)c(OC)cc(OC)c1Br)C2 [I-228]
3 | > 1000 | – | C=CC(=O)Nc1cc(C(=O)NC2CCN(C)CC2)ccc1Nc1ncc2c(n1)N(C)C(=O)N(c1cc(OC)cc(OC)c1)C2 [I-151]
4 | > 1000 | – | C=CC(=O)NC1CN(C2CCN(C)CC2)CC1Nc1ncc2c(n1)N(C)C(=O)N(c1c(Cl)c(OC)cc(OC)c1Cl)C2 (racemic) [I-154]
5 | 101 to 500 | – | C=CC(=O)NC1COCC1Nc1ncc2c(n1)N(C)C(=O)N(c1c(F)c(OC)cc(OC)c1F)C2 (centres unmarked) [I-198]
6 | < 100 | – | C=CC(=O)NC1COCC1Nc1ncc2c(n1)N(CC)C(=O)N(c1c(Cl)c(OC)cc(OC)c1Cl)C2 (centres unmarked) [I-217]
7 | < 100 | – | C=CC(=O)N[C@H]1COC[C@H]1Nc1ncc2cc(-c3c(Cl)c(OC)cc(OC)c3Cl)c(=O)n(C)c2n1 [I-241]
8 | > 1000 | – | C=CC(=O)N[C@@H]1COC[C@@H]1Nc1ncc2c(n1)N(C)C(=O)N(c1c(Cl)c(OC)cc(OC)c1Cl)C2 [I-185]
9 | < 100 | – | COc1cc(OC)c(Cl)c(N2Cc3cnc(Nc4ccccc4)nc3N(C)C2=O)c1Cl [I-238]
10 | > 1000 | – | C=CC(=O)N[C@@H]1COC[C@@H]1Nc1ncc2cc(-c3c(Cl)c(OC)cc(OC)c3Cl)c(=O)n(C)c2n1 [I-240]
11 | 501 to 999 | – | C=CC(=O)NC1CN(c2ccncn2)CC1Nc1ncc2c(n1)N(C)C(=O)N(c1c(Cl)c(OC)cc(OC)c1Cl)C2 (centres unmarked) [I-201]
12 | < 100 | – | C=CC(=O)NC1COCC1Nc1ncc2c(n1)N(Cc1cnn(C)c1)C(=O)N(c1c(Cl)c(OC)cc(OC)c1Cl)C2 (centres unmarked) [I-213]
13 | < 100 | – | C=CC(=O)NC1COCC1Nc1ncc2c(n1)N(C)C(=O)N(c1c(F)c(OC)cc(OC)c1Cl)C2 (centres unmarked) [I-206]
14 | > 1000 | – | C=CC(=O)NC1CN(C)CC1Nc1ncc2c(n1)N(C)C(=O)N(c1c(Cl)c(OC)cc(OC)c1Cl)C2 (racemic) [I-138]
15 | 101 to 500 | – | C=CC(=O)NC1COCC1Nc1ncc2c(n1)N(Cc1cc[nH]n1)C(=O)N(c1c(Cl)c(OC)cc(OC)c1Cl)C2 (centres unmarked) [I-216]
16 | < 100 | – | C=CC(=O)Nc1cc(OC)ccc1Nc1ncc2cc(-c3c(Cl)c(OC)cc(OC)c3Cl)c(=O)n(C)c2n1 [I-242]
17 | < 100 | – | C=CC(=O)N[C@H]1COC[C@H]1Nc1ncc2c(n1)N(C)C(=O)N(c1c(Cl)c(OC)cc(OC)c1Cl)C2 [I-186]
18 | 101 to 500 | – | C=CC(=O)Nc1cc(-c2nnnn2C)ccc1Nc1ncc2c(n1)N(C)C(=O)N(c1c(Cl)c(OC)cc(OC)c1Cl)C2 [I-153]
19 | 101 to 500 | – | C=CC(=O)NC1COCC1Nc1ncc2c(n1)N(Cc1cscn1)C(=O)N(c1c(Cl)c(OC)cc(OC)c1Cl)C2 (centres unmarked) [I-210]
20 | 101 to 500 | – | C=CC(=O)N[C@H]1CCCC[C@H]1Nc1ncc2cc(-c3c(Cl)c(OC)cc(OC)c3Cl)c(=O)n(C)c2n1 [I-223]
21 | 501 to 999 | – | C=CC(=O)NC1CN(C(C)=O)CC1Nc1ncc2c(n1)N(C)C(=O)N(c1c(Cl)c(OC)cc(OC)c1Cl)C2 (racemic) [I-139]
22 | > 1000 | – | C=CC(=O)Nc1cc(-c2nnn(C)n2)ccc1Nc1ncc2c(n1)N(C)C(=O)N(c1cc(OC)cc(OC)c1)C2 [I-146]
23 | < 100 | – | C=CC(=O)NC1COCC1Nc1ncc2c(n1)N(CC1CC1)C(=O)N(c1c(Cl)c(OC)cc(OC)c1Cl)C2 (centres unmarked) [I-212]
24 | 101 to 500 | – | C=CC(=O)NC1COCC1Nc1ncc2c(n1)N(Cc1ccn(C)n1)C(=O)N(c1c(Cl)c(OC)cc(OC)c1Cl)C2 (centres unmarked) [I-215]
25 | < 100 | – | C=CC(=O)NC1COCC1Nc1ncc2cc(-c3c(Cl)c(OC)cc(OC)c3Cl)c(=O)n(C)c2n1 (centres unmarked) [I-211]

The next lines start with the compound.

Row | SMILES | GI50 (Huh7 cells) [nM] | GI50 (MDA-MB-453 cells) [nM]
26 | C=CC(=O)Nc1cc(N2CCN(C(=O)CCCC(=O)NCCCOCCOCCOCCCNC(=O)CCCC[C@@H]3SC[C@@H]4NC(=O)N[C@@H]43)CC2)ccc1Nc1ncc2c(n1)N(C)C(=O)N(c1c(Cl)c(OC)cc(OC)c1Cl)C2 [I-127] | > 1000 | –
27 | C=CC(=O)Nc1ccccc1Nc1ncc2c(n1)N(Cc1cn[nH]c1)C(=O)N(c1c(Cl)c(OC)cc(OC)c1Cl)C2 [I-124] | 101 to 500 | < 100
28 | C=CC(=O)Nc1ccccc1Nc1ncc2c(n1)N(C)C(=O)N(c1c(F)c(OC)cc(OC)c1F)C2 [I-131] | 101 to 500 | < 100
29 | C=CC(=O)Nc1ccccc1Nc1ncc2c(n1)N(Cc1cccc(C(N)=O)c1)C(=O)N(c1cc(OC)cc(OC)c1)C2 [I-97] | > 1000 | 101 to 500
30 | C=CC(=O)Nc1ccccc1Nc1ncc2c(n1)N(Cc1cscn1)C(=O)N(c1cc(OC)cc(OC)c1)C2 [I-64] | > 1000 | 101 to 500
31 | C=CC(=O)NC1CCCCC1Nc1ncc2c(n1)N(Cc1ccnc(N)c1)C(=O)N(c1c(Cl)c(OC)cc(OC)c1Cl)C2 (centres unmarked) [I-133] | 101 to 500 | < 100
32 | C=CC(=O)Nc1ccccc1Nc1ncc2c(n1)N(CC(F)F)C(=O)N(c1c(F)c(OC)cc(OC)c1F)C2 [I-116] | 101 to 500 | < 100
33 | C=CC(=O)Nc1ccccc1Nc1ncc2c(n1)N(CC(O)CO)C(=O)N(c1cc(OC)cc(OC)c1)C2 (centres unmarked) [I-33] | > 1000 | –
34 | C=CC(=O)Nc1ccc(C(F)(F)F)cc1Nc1ncc2c(n1)N(C)C(=O)N(c1cc(OC)cc(OC)c1)C2 [I-50] | > 1000 | –
35 | C=CC(=O)Nc1ccccc1Nc1ncc2c(n1)N(Cc1cn[nH]c1)C(=O)N(c1cc(OC)cc(OC)c1)C2 [I-121] | 501 to 999 | 101 to 500
36 | C=CC(=O)Nc1ccccc1Nc1ncc2c(n1)N(Cc1cscn1)C(=O)N(c1c(Cl)c(OC)cc(OC)c1Cl)C2 [I-86] | – | < 100
37 | C=CC(=O)N[C@H]1CCCC[C@H]1Nc1ncc2c(n1)N(Cc1ccccc1)C(=O)N(c1c(Cl)c(OC)cc(OC)c1Cl)C2 [I-82] | – | < 100
38 | C=CC(=O)NC1CCCCC1Nc1ncc2c(n1)N(Cc1ccn(C)c(=O)c1)C(=O)N(c1c(Cl)c(OC)cc(OC)c1Cl)C2 (centres unmarked) [I-132] | > 1000 | –
39 | C=CC(=O)Nc1cc(C)ccc1Nc1ncc2c(n1)N(C)C(=O)N(c1cc(OC)cc(OC)c1)C2 [I-41] | > 1000 | –
40 | C=CC(=O)Nc1cc(-c2cnn(C)c2)ccc1Nc1ncc2c(n1)N(C)C(=O)N(c1cc(OC)cc(OC)c1)C2 [I-77] | – | 101 to 500
41 | C=CCN1C(=O)N(c2cc(OC)cc(OC)c2)Cc2cnc(Nc3ccccc3NC(=O)C=C)nc21 [I-32] | – | 501 to 999
42 | C=CC(=O)Nc1ccccc1Nc1ncc2c(n1)N(C1CC1)C(=O)N(c1c(Cl)c(OC)cc(OC)c1Cl)C2 [I-23] | – | < 100
43 | C=CC(=O)Nc1cc(N2CCCCC2)ccc1Nc1ncc2c(n1)N(C)C(=O)N(c1cc(OC)cc(OC)c1)C2 [I-31] | – | 101 to 500
44 | C=CC(=O)Nc1ccccc1Nc1ncc2c(n1)N(Cc1ccc(Cl)c(OC)c1)C(=O)N(c1c(Cl)c(OC)cc(OC)c1Cl)C2 [I-24] | – | < 100
45 | C=CC(=O)Nc1ccccc1Nc1ncc2c(n1)N(C1CCCNC1)C(=O)N(c1cc(OC)cc(OC)c1)C2 (centres unmarked) [I-43] | 101 to 500 | –

Row | SMILES | GI50 (Huh7 cells) [nM] | GI50 (MDA-MB-453 cells) [nM]
46 | C=CC(=O)Nc1ccccc1Nc1ncc2c(n1)N(CC1CC1)C(=O)N(c1cc(OC)cc(OC)c1F)C2 [I-109] | – | < 100
47 | C=CC(=O)NC1CCCCC1Nc1ncc2c(n1)N(CCF)C(=O)N(c1c(Cl)c(OC)cc(OC)c1Cl)C2 (racemic) [I-106] | > 1000 | –
48 | C=CC(=O)N[C@H]1CCCC[C@H]1Nc1ncc2c(n1)N(Cc1nccs1)C(=O)N(c1c(Cl)c(OC)cc(OC)c1Cl)C2 [I-92] | – | 101 to 500
49 | C=CC(=O)Nc1ccccc1Nc1ncc2c(n1)N(Cc1ccnc(N)c1)C(=O)N(c1c(Cl)c(OC)cc(OC)c1Cl)C2 [I-135] | – | < 100
50 | C=CC(=O)Nc1ccccc1Nc1ncc2c(n1)N(C)C(=O)N(c1cc(OC)cc(OC)c1Cl)C2 [I-75] | – | 101 to 500
51 | C=CC(=O)Nc1ccccc1Nc1ncc2c(n1)N(C1CCCN(C(=O)OC(C)(C)C)C1)C(=O)N(c1cc(OC)cc(OC)c1)C2 (centres unmarked) [I-36] | > 1000 | –
52 | C=CC(=O)Nc1ccccc1Nc1ncc2c(n1)N(Cc1nccs1)C(=O)N(c1c(Cl)c(OC)cc(OC)c1Cl)C2 [I-91] | – | < 100
53 | C=CC(=O)NC1CCCCC1Nc1ncc2c(n1)N(CC(F)F)C(=O)N(c1c(F)c(OC)cc(OC)c1F)C2 (centres unmarked) [I-115] | > 1000 | –
54 | C=CC(=O)NC1CCCCC1Nc1ncc2c(n1)N(Cc1csc(C)n1)C(=O)N(c1c(Cl)c(OC)cc(OC)c1Cl)C2 (centres unmarked) [I-137] | 501 to 999 | –
55 | C=CC(=O)Nc1ccccc1Nc1ncc2c(n1)N(Cc1ccn(C)n1)C(=O)N(c1c(Cl)c(OC)cc(OC)c1Cl)C2 [I-136] | – | < 100
56 | C=CC(=O)Nc1ccccc1Nc1ncc2c(n1)N(CCF)C(=O)N(c1cc(OC)cc(OC)c1)C2 [I-102] | > 1000 | –
57 | C=CC(=O)Nc1nn(C)cc1Nc1ncc2c(n1)N(C)C(=O)N(c1c(Cl)c(OC)cc(OC)c1Cl)C2 [I-117] | 101 to 500 | –
58 | C=CC(=O)Nc1ccc(-c2nccs2)cc1Nc1ncc2c(n1)N(C)C(=O)N(c1cc(OC)cc(OC)c1)C2 [I-78] | – | 101 to 500
59 | C=CC(=O)Nc1cc(C(F)(F)F)ccc1Nc1ncc2c(n1)N(C)C(=O)N(c1cc(OC)cc(OC)c1)C2 [I-42] | > 1000 | –
60 | C=CC(=O)Nc1ccccc1Nc1ncc2c(n1)N(C1CC1)C(=O)N(c1cc(OC)cc(OC)c1)C2 [I-34] | – | 501 to 999
61 | C=CC(=O)Nc1ccccc1Nc1ncc2c(n1)N(C)C(=O)N(c1cc(OC)cc(OC)c1F)C2 [I-108] | – | 101 to 500
62 | C=CS(=O)(=O)Nc1ccccc1Nc1ncc2c(n1)N(C)C(=O)N(c1cc(OC)cc(OC)c1)C2 [I-67] | – | 501 to 999
63 | C=CC(=O)Nc1ccccc1Nc1ncc2c(n1)NC(=O)N(c1cc(OC)cc(OC)c1)C2 [I-125] | > 1000 | –
64 | C=CC(=O)Nc1ccccc1Nc1ncc2c(n1)N(Cc1cccc(C#N)c1)C(=O)N(c1cc(OC)cc(OC)c1)C2 [I-90] | – | 101 to 500
